PubChem BioAssay AID180 (DTP/NCI, 2004)
Several values for one entry are separate records, joined by “and”; a condition that tells them apart may be missing. Equal values may be shown once. Non-standard residues stand in square brackets, D forms with d. Residues, ends and D or L forms follow the SMILES beside them. ξ: configuration not given here. Ac5c = NC1(C(=O)O)CCCC1; ξS = NC(CO)C(=O)O

Tested on: BDF1 mice, Adenocarcinoma 755 s.c., tumor weight T/C
Assay: NCI In Vivo Anticancer Drug Screen. Data for tumor model Adenocarcinoma 755 (subcutaneous) in B6D2F1 (BDF1) mice
Conditions: endpoint: mean tumor weight, higher = larger tumour
How it was run: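 Compound activity was tested in mice carrying transplanted tumors. Survival or tumor size was measured, and each value is the treated-group measurement divided by that of the vehicle-treated control group (T/C).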

In the case of `CCOC(=O)CN=NNc1nc[nH]c1C(N)=O`, the T/C (dose: 56.0 mg/kg/injection, schedule: Q01DX011 (ip), vehicle: carboxymethylcellulose (CMC)) is reported as 58 % of control, the T/C (dose: 112.0 mg/kg/injection, schedule: Q01DX011 (ip), vehicle: carboxymethylcellulose (CMC)) is reported as 106 % of control and the T/C (dose: 175.0 mg/kg/injection, schedule: Q01DX011 (ip), vehicle: carboxymethylcellulose (CMC)) is reported as 81 % of control. For the same compound, the T/C (dose: 225.0 mg/kg/injection, schedule: Q01DX011 (ip), vehicle: carboxymethylcellulose (CMC)) was 27 % of control and the T/C (dose: 350.0 mg/kg/injection, schedule: Q01DX011 (ip), vehicle: carboxymethylcellulose (CMC)) was 58 % of control.

`Cn1cnc2c(SCc3ccccc3)ncnc21` was tested, and the T/C (dose: 63.0 mg/kg/injection, schedule: Q01DX011 (ip), vehicle: carboxymethylcellulose (CMC)) was 3 % of control, the T/C (dose: 126.0 mg/kg/injection, schedule: Q01DX011 (ip), vehicle: carboxymethylcellulose (CMC)) was 1 % of control and the T/C (dose: 252.0 mg/kg/injection, schedule: Q01DX011 (ip), vehicle: carboxymethylcellulose (CMC)) was 1 % of control.

For `Cc1nc(Cl)c(C#N)c(C(F)(F)F)c1N`, the T/C (dose: 100.0 mg/kg/injection, schedule: Q01DX011 (ip), vehicle: carboxymethylcellulose (CMC)) was 153 % of control.

`C[C@H]1C[C@@H]2[C@H]([C@@H](O)C[C@@]3(C)[C@H]2CC[C@]3(O)C(=O)CO)[C@@]2(C)C=CC(=O)C=C12` was tested, and the T/C (dose: 14.3 mg/kg/injection, schedule: Q01DX011 (sc), vehicle: steriod suspending solution) was 21 % of control, the T/C (dose: 14.3 mg/kg/injection, schedule: Q01DX011 (sc), vehicle: water) was 48 % of control and 56 % of control and the T/C (dose: 28.5 mg/kg/injection, schedule: Q01DX011 (sc), vehicle: steriod suspending solution) was 8 % of control. The T/C (dose: 28.5 mg/kg/injection, schedule: Q01DX011 (sc), vehicle: water) was 25 % of control and 47 % of control, the T/C (dose: 57.0 mg/kg/injection, schedule: Q01DX011 (sc), vehicle: steriod suspending solution) was 1 % of control and the T/C (dose: 57.0 mg/kg/injection, schedule: Q01DX011 (sc), vehicle: water) was 5 % of control and 29 % of control. For the same compound, the T/C (dose: 114.0 mg/kg/injection, schedule: Q01DX011 (sc), vehicle: steriod suspending solution) was 1 % of control and the T/C (dose: 114.0 mg/kg/injection, schedule: Q01DX011 (sc), vehicle: water) was 3 % of control.

With `Nc1nc2c(nc(Br)n2C2OC(CO)C(O)C2O)c(=O)[nH]1` (stereo unspecified) the T/C (dose: 30.0 mg/kg/injection, schedule: Q01DX011 (ip), vehicle: carboxymethylcellulose (CMC)) was 82 % of control, the T/C (dose: 60.0 mg/kg/injection, schedule: Q01DX011 (ip), vehicle: carboxymethylcellulose (CMC)) was 43 % of control and the T/C (dose: 120.0 mg/kg/injection, schedule: Q01DX011 (ip), vehicle: carboxymethylcellulose (CMC)) was 17 % of control.

In the case of `CN(C)c1ccc(Nc2c3ccccc3nc3ccccc23)cc1`, the T/C (dose: 9.0 mg/kg/injection, schedule: Q01DX011 (ip), vehicle: saline) is reported as 70 % of control, the T/C (dose: 18.0 mg/kg/injection, schedule: Q01DX011 (ip), vehicle: saline) is reported as 91 % of control and the T/C (dose: 35.0 mg/kg/injection, schedule: Q01DX011 (ip), vehicle: saline) is reported as 75 % of control. The T/C (dose: 70.0 mg/kg/injection, schedule: Q01DX011 (ip), vehicle: saline) was 39 % of control.

`NC(=S)n1cccn1` was tested, and the T/C (dose: 20.0 mg/kg/injection, schedule: Q01DX011 (ip), vehicle: methylcellulose (MC)) was 91 % of control, the T/C (dose: 40.0 mg/kg/injection, schedule: Q01DX011 (ip), vehicle: methylcellulose (MC)) was 85 % of control and the T/C (dose: 80.0 mg/kg/injection, schedule: Q01DX011 (ip), vehicle: methylcellulose (MC)) was 44 % of control. For the same compound, the T/C (dose: 160.0 mg/kg/injection, schedule: Q01DX011 (ip), vehicle: methylcellulose (MC)) was 8 % of control.

For `c1cc(CSc2ncnc3nc[nH]c23)ccn1`, the T/C (dose: 3.1 mg/kg/injection, schedule: Q01DX011 (ip), vehicle: methylcellulose (MC)) was 72 % of control, the T/C (dose: 6.25 mg/kg/injection, schedule: Q01DX011 (ip), vehicle: methylcellulose (MC)) was 39 % of control and the T/C (dose: 12.5 mg/kg/injection, schedule: Q01DX011 (ip), vehicle: methylcellulose (MC)) was 29 % of control. The T/C (dose: 25.0 mg/kg/injection, schedule: Q01DX011 (ip), vehicle: methylcellulose (MC)) was 16 % of control and 25 % of control, the T/C (dose: 50.0 mg/kg/injection, schedule: Q01DX011 (ip), vehicle: methylcellulose (MC)) was 12 % of control and the T/C (dose: 100.0 mg/kg/injection, schedule: Q01DX011 (ip), vehicle: methylcellulose (MC)) was 7 % of control. The T/C (dose: 200.0 mg/kg/injection, schedule: Q01DX011 (ip), vehicle: methylcellulose (MC)) was 2 % of control.

With `NC(CO)C(=O)NC1(C(=O)O)CCCC1` (stereo unspecified) (H-[ξS]-[Ac5c]-OH) the T/C (dose: 45.0 mg/kg/injection, schedule: Q01DX011 (ip), vehicle: carboxymethylcellulose (CMC)) was 62 % of control, the T/C (dose: 90.0 mg/kg/injection, schedule: Q01DX011 (ip), vehicle: carboxymethylcellulose (CMC)) was 12 % of control and the T/C (dose: 180.0 mg/kg/injection, schedule: Q01DX011 (ip), vehicle: carboxymethylcellulose (CMC)) was 5 % of control.

`CSc1nc(N)c(NC=O)c(=O)n1C` was tested, and the T/C (dose: 25.0 mg/kg/injection, schedule: Q01DX011 (ip), vehicle: saline) was 118 % of control and the T/C (dose: 75.0 mg/kg/injection, schedule: Q01DX011 (ip), vehicle: saline) was 66 % of control.

With `Nc1cc(C(=O)O)nc(N)n1` the T/C (dose: 31.0 mg/kg/injection, schedule: Q01DX011 (ip), vehicle: methylcellulose (MC)) was 68 % of control.
